In patent publication US20030055065A1, “Tricyclic amide and urea compounds useful for inhibition of G-protein function and for treatment of proliferative diseases” (priority 1993, published 2003):
“And” between values parts separate entries of the source, which are not always exact repeats. Equal values may be shown once. Read-outs that look alike come from different tables or passages of the source.

Molecular target: T1, farnesyl protein transferase (FPT), partially purified from rat brain (Rattus norvegicus, UniProt Q02293+Q04631)
T1 construct: were partially purified from rat brain by ammonium sulfate fractionation followed by Q-Sepharose
T1 sequence (Q02293 whole entry, one chain of several): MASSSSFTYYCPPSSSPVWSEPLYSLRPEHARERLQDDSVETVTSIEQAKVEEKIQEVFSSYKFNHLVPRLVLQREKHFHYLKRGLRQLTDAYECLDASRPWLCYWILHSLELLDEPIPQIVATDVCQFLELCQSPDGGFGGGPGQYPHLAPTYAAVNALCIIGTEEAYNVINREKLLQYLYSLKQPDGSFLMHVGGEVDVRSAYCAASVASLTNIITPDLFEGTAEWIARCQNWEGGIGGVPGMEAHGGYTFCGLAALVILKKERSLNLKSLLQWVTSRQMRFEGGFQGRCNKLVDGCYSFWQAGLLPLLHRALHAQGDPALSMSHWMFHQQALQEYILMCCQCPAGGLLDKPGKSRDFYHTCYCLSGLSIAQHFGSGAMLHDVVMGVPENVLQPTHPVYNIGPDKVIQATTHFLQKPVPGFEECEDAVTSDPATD
Assay: Inhibition of farnesyl protein transferase (transfer of [3H]farnesyl to Ras-CVLS)
Format: biochemical
Conditions: for IC50: read-out: FPT IC50
Procedure: 1. In vitro enzyme assays: Inhibition of farnesyl protein transferase and geranylgeranyl protein transferase.
Human farnesyl protein transferase was also expressed in E. coli, using cDNA clones encoding both the α and β subunits. […] Human farnesyl protein transferase was partially-purified from the soluble protein fraction of E. coli as described above. […] Two forms of val^12-Ha-Ras protein were prepared as substrates for these enzymes, differing in their carboxy terminal sequence. One form terminated in cysteine-valine-leucine-serine (Ras-CVLS) the other in cystein-valine-leucine-leucine (Ras-CVLL). Ras-CVLS is a substrate for the farnesyl protein transferase while Ras-CVLL is a substrate for geranylgeranyl protein transferase I. The cDNAs encoding these proteins were constructed so that the proteins contain an amino-terminal extension of 6 histidine residues. Both proteins were expressed in Escherichia coli and purified using metal chelate affinity chromatography. The radiolabelled isoprenyl pyrophosphate substrates, [^3H]farnesyl pyrophosphate and [3H]geranylgeranyl pyrophosphate, were purchased from DuPont/New England Nuclear.
The reaction was allowed to proceed for 30 minutes at room temperature and then stopped with 0.5 ml of 4% sodium dodecyl sulfate (SDS) followed by 0.5 ml of cold 30% trichloracetic acid (TCA). Samples were allowed to sit on ice for 45 minutes and precipitated Ras protein was then collected on GF/C filter paper mats using a Brandel cell harvester. […] Percent inhibition was calculated relative to the DMSO vehicle control.

[1] = Ras-CVLS farnesylation, partially purified rat brain FPT

| IC50 [1] [µM] | SMILES | also measured |
| --- | --- | --- |
| 3.2 | O=C(Nc1cccnc1)N1CCN([C@@H]2c3ccc(Cl)cc3CCc3cccnc32)CC1 [224 (6.10)] |  |
|  | CN1CCC(CC(=O)N2CCN(C3c4ccc(Cl)cc4CCc4cc(Br)cnc43)CC2)CC1 (centres unmarked) [425-O (5.126)] | IC50 (enzyme inhibition): 0.17 µM and 0.14 µM and 0.122 µM and 0.118 µM and 0.178 µM |
| 2.3 | O=C(Cc1ccncc1)N1CCC(=C2c3ccncc3CCc3cc(Cl)ccc32)CC1 [Example 5.39] |  |
| 5.1 | O=C(C1CCCO1)N1CCC(=C2c3ccc(Cl)cc3CCc3cccnc32)CC1 (centres unmarked) [Example 19A] |  |
| 5.9 | Nc1ccc(C(=O)N2CCC(=C3c4ccc(Cl)cc4CCc4cccnc43)CC2)cc1 [Example 21] |  |
| 6.2 | COc1cc(C(=O)N2CCC(=C3c4ccc(Cl)cc4CCc4cccnc43)CC2)cc(OC)c1O [Example 24] |  |
| 7.3 | O=C(c1cnccn1)N1CCC(=C2c3ccc(Cl)cc3CCc3cccnc32)CC1 [Example 27] |  |
| 7.3 | O=C(c1ccnc(Cl)c1)N1CCC(=C2c3ccc(Cl)cc3CCc3cccnc32)CC1 [Example 28] |  |
| 8.7 | O=C(c1cnc(O)nc1O)N1CCC(=C2c3ccc(Cl)cc3CCc3cccnc32)CC1 [Example 33] |  |
| 11.4 | Cc1cc(C(=O)N2CCC(=C3c4ccc(Cl)cc4CCc4cccnc43)CC2)cc(Cl)[n+]1[O-] [Example 37] |  |
|  | O=C(c1cc2ccccc2[nH]1)N1CCC(=C2c3ccc(Cl)cc3CCc3cccnc32)CC1 [Example 40] | FPT inhibition (at 13 μM): 44% at 13 μM |
| 5.9 | O=C(c1ccoc1)N1CCC(=C2c3ccc(Cl)cc3CCc3cccnc32)CC1 [Example 55] |  |
| 7.8 | CC(=O)N1CCC(=C2c3ccc(Cl)cc3CCc3cc(Cl)cnc32)CC1 [Example 62] |  |
|  | CC(=O)N1CCC(=C2c3ccc(Cl)cc3CCc3ccc(C)nc32)CC1 [Example 63] | FPT inhibition (at 16.4 μM): 1% at 16.4 μM |
| 10.6 | CC(=O)N1CCC(=C2c3ccc(Cl)cc3CCc3cc(C)cnc32)CC1 [Example 64] |  |
|  | CC(=O)N1CCC(=C2c3ccc(Cl)cc3CCc3cc(C(C)(C)C)cnc32)CC1 [Example 66] | FPT inhibition (at 50 μM): 22% at 50 μM |
| 17.6 | CC(=O)N1CCC(=C2c3cc4ccccc4cc3CCc3cccnc32)CC1 [Example 71A] |  |
|  | CC(=O)N1CCC(=C2c3cc(Cl)c(Cl)cc3CCc3cccnc32)CC1 [Example 71C] | FPT inhibition (at 15.5 μM): 38% at 15.5 μM |
|  | CC(=O)N1CCC(=C2c3ccc(Cl)cc3CCc3ccc[n+]([O-])c32)CC1 [Example 73] | FPT inhibition (at 15.6 μM): 27% at 15.6 μM |
|  | COc1cc[n+]([O-])c2c1CCc1cc(Cl)ccc1C2=C1CCN(C(C)=O)CC1 [Example 74A] | FPT inhibition (at 14.2 μM): 25% at 14.2 μM |
| 4 | CC(=O)N1CCC(=C2c3ccc(Cl)cc3CCc3cc(Br)c[n+]([O-])c32)CC1 [Example 74B] |  |
| 11.6 | CC(=O)N1CCC(=C2c3ccc(Cl)cc3CCc3c(Cl)cc[n+]([O-])c32)CC1 [Example 74C] |  |
| 3.9 | CNS(=O)(=O)c1ccc(C(=O)N2CCC(=C3c4ccc(Cl)cc4CCc4cccnc43)CC2)cc1 [Example 92] |  |
| 4.4 | O=C(/C=C/c1ccncc1)N1CCC(=C2c3ccc(Cl)cc3CCc3cccnc32)CC1 [Example 99] |  |

| IC50 [1] [µM] | SMILES | also measured |
| --- | --- | --- |
| 4.5 | O=C(C1CCNCC1)N1CCC(=C2c3ccc(Cl)cc3CCc3cccnc32)CC1 [Example 100] |  |
| 4.6 | O=C(N[C@@H]1C[C@H]1c1ccccc1)N1CCC(=C2c3ccc(Cl)cc3CCc3cccnc32)CC1 [Example 101] |  |
| 4.6 | O=C(Cc1cccs1)N1CCC(=C2c3ccc(Cl)cc3CCc3cccnc32)CC1 [Example 102] |  |
| 4.6 | O=C(C1CCSCC1)N1CCC(=C2c3ccc(Cl)cc3CCc3cccnc32)CC1 [Example 103] |  |
| 4.7 | O=C(C1CCC(=NO)CC1)N1CCC(=C2c3ccc(Cl)cc3CCc3cccnc32)CC1 (centres unmarked) [Example 104] |  |
| 5 | NC1CCC(C(=O)N2CCC(=C3c4ccc(Cl)cc4CCc4cccnc43)CC2)CC1 (centres unmarked) [Example 105] |  |
| 5.3 | O=C(O)c1ccc(C(=O)N2CCC(=C3c4ccc(Cl)cc4CCc4cccnc43)CC2)cc1 [Example 106] |  |
| 6.9 | CSc1ccc(C(=O)N2CCC(=C3c4ccc(Cl)cc4CCc4cccnc43)CC2)cc1 [Example 108] |  |
| 7.2 | CNc1ccc(C(=O)N2CCC(=C3c4ccc(Cl)cc4CCc4cccnc43)CC2)cn1 [Example 109] |  |
| 8.3 | CN(C)c1cc(C(=O)N2CCC(=C3c4ccc(Cl)cc4CCc4cccnc43)CC2)ccn1 [Example 110] |  |
| 8.5 | O=C(c1ccc(NS(=O)(=O)C(F)(F)F)cc1)N1CCC(=C2c3ccc(Cl)cc3CCc3cccnc32)CC1 [Example 111] |  |
| 8.8 | CC(C)(C)OC(=O)NCC(=O)N1CCC(=C2c3ccc(Cl)cc3CCc3cccnc32)CC1 [Example 112] |  |
| 10.3 | CC(=O)N(C)CCC(=O)N1CCC(=C2c3ccc(Cl)cc3CCc3cccnc32)CC1 [Example 113] |  |
| 11.1 | O=C(c1cccnc1O)N1CCC(=C2c3ccc(Cl)cc3CCc3cccnc32)CC1 [Example 114] |  |
| 14.2 | C=CC(=O)N1CCC(=C2c3ccc(Cl)cc3CCc3cccnc32)CC1 [Example 115] |  |
| 15.7 | CC(O)C(=O)N1CCC(=C2c3ccc(Cl)cc3CCc3cccnc32)CC1 (centres unmarked) [Example 116] |  |
| 22.3 | NCC(=O)N1CCC(=C2c3ccc(Cl)cc3CCc3cccnc32)CC1 [Example 118] |  |
|  | COc1cc(C(=O)N2CCC(=C3c4ccc(Cl)cc4CCc4cccnc43)CC2)cc(OC)c1OC [Example 119] | FPT inhibition (at 11 μM): 41% at 11 μM |
|  | Cc1ccc(S(=O)(=O)NC(=O)N2CCC(=C3c4ccc(Cl)cc4CCc4cccnc43)CC2)cc1 [Example 120] | FPT inhibition (at 39 μM): 4% at 39 μM |
|  | O=C1CCC(C(=O)N2CCC(=C3c4ccc(Cl)cc4CCc4cccnc43)CC2)N1 (centres unmarked) [Example 123] | FPT inhibition (at 12.6 μM): 23% at 12.6 μM |
|  | Cc1cc(C(=O)N2CCC(=C3c4ccc(Cl)cc4CCc4cccnc43)CC2)cc(Cl)n1 [Example 124] | FPT inhibition (at 12.8 μM): 37% at 12.8 μM |
| 10.3 | O=C(Cc1c(O)cccc1O)N1CCC(=C2c3ccc(Cl)cc3CCc3cccnc32)CC1 [Example 125] |  |
|  | O=C(Cc1c[nH]c2ccccc12)N1CCC(=C2c3ccc(Cl)cc3CCc3cccnc32)CC1 [Example 129] | FPT inhibition (at 11.8 μM): 32% at 11.8 μM |
|  | CC(=O)N1CCC(=C2c3ccc(Cl)cc3CCc3ccc[n+](C)c32)CC1 [Example 130] | FPT inhibition (at 12.1 μM): 7% at 12.1 μM |

| SMILES | IC50 [1] [µM] | also measured |
| --- | --- | --- |
| C#CC(=O)N1CCC(=C2c3ccc(Cl)cc3CCc3cccnc32)CC1 [Example 9] | 4 |  |
| COC(=O)c1ccc(C(=O)N2CCC(=C3c4ccc(Cl)cc4CCc4cccnc43)CC2)cc1 [Example 13] | 4.5 |  |
| O=C(c1ccnnc1)N1CCC(=C2c3ccc(Cl)cc3CCc3cccnc32)CC1 [Example 14] | 4.6 |  |
| O=C(c1cc[nH]c1)N1CCC(=C2c3ccc(Cl)cc3CCc3cccnc32)CC1 [Example 16] | 4.8 |  |
| CN(C)c1ccc(C(=O)N2CCC(=C3c4ccc(Cl)cc4CCc4cccnc43)CC2)cc1 [Example 17] | 4.8 |  |
| O=C(c1cn[nH]c1)N1CCC(=C2c3ccc(Cl)cc3CCc3cccnc32)CC1 [Example 18] | 4.9 |  |
| Cc1ccc2c(O)c(C(=O)N3CCC(=C4c5ccc(Cl)cc5CCc5cccnc54)CC3)cnc2n1 [Example 20] | 5.2 |  |
| O=C(c1cc[nH]c(=O)c1)N1CCC(=C2c3ccc(Cl)cc3CCc3cccnc32)CC1 [Example 25] | 6.25 |  |
| O=C(c1cccnc1)N1CCC(=C2c3ccc(Cl)cc3CCc3cccnc32)CC1 [Example 26] | 6.3 |  |
| O=C(c1ccccn1)N1CCC(=C2c3ccc(Cl)cc3CCc3cccnc32)CC1 [Example 29] | 8 |  |
| O=C(c1c[nH]c2ccccc12)N1CCC(=C2c3ccc(Cl)cc3CCc3cccnc32)CC1 [Example 30] | 5.7 |  |
| O=C(c1cc([N+](=O)[O-])c(O)c([N+](=O)[O-])c1)N1CCC(=C2c3ccc(Cl)cc3CCc3cccnc32)CC1 [Example 31] | 8.3 |  |
| O=C(c1cncc2ccccc12)N1CCC(=C2c3ccc(Cl)cc3CCc3cccnc32)CC1 [Example 32] | 8.7 |  |
| O=C(c1cc[n+]([O-])c2ccccc12)N1CCC(=C2c3ccc(Cl)cc3CCc3cccnc32)CC1 [Example 34] | 9.8 |  |
| Cn1cc(C(=O)N2CCC(=C3c4ccc(Cl)cc4CCc4cccnc43)CC2)ccc1=O [Example 36] | 11.2 |  |
| O=C(c1ccnc2ccccc12)N1CCC(=C2c3ccc(Cl)cc3CCc3cccnc32)CC1 [Example 38] | 12.1 |  |
| O=C1CCC(C(=O)N2CCC(=C3c4ccc(Cl)cc4CCc4cccnc43)CC2)O1 (centres unmarked) [Example 39] | 13.4 |  |
| O=C(c1ccco1)N1CCC(=C2c3ccc(Cl)cc3CCc3cccnc32)CC1 [Example 52] | 4.9 |  |
| O=C(c1ccccc1)N1CCC(=C2c3ccc(Cl)cc3CCc3cccnc32)CC1 [Example 54] | 5.3 |  |
| CCOC(=O)C(=O)N1CCC(=C2c3ccc(Cl)cc3CCc3cccnc32)CC1 [Example 56] | 7.9 |  |
| CC(C)(C)CC(=O)N1CCC(=C2c3ccc(Cl)cc3CCc3cccnc32)CC1 [Example 57] | 9.8 |  |
| COCC(=O)N1CCC(=C2c3ccc(Cl)cc3CCc3cccnc32)CC1 [Example 58] | 14.4 |  |
| CC(=O)N1CCC(=C2c3ccc(Cl)cc3CCc3cccnc32)CC1 [Example 59] | 26.9 |  |
